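Protocol summary: plate cells (96-well), add compound at 5 concentrations, incubate 48 h, interpolate endpoints linearly. GI50: concentration for 50% inhibition of growth.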 Active and inactive are the calls of the source. Cut-off read from the data, not from the text of the source: active = GI50 up to about 1.1 µM and inactive = higher.
Experiments:
Test in all cases: growth of human tumour cells (NCI), 48 h
HL-60 = tested on: HL-60
SF-539 = tested on: SF-539
UACC-62 = tested on: UACC-62
COLO 205 = tested on: COLO 205
OVCAR-4 = tested on: OVCAR-4
A498 = tested on: A498
BT-549 = tested on: BT-549
SW-620 = tested on: SW-620
U-251 = tested on: U-251
MDA-N = tested on: MDA-N
HCT-116 = tested on: HCT-116
UACC-257 = tested on: UACC-257
SK-MEL-2 = tested on: SK-MEL-2
SK-OV-3 = tested on: SK-OV-3
K562 = tested on: K562
Malme-3M = tested on: Malme-3M
PC-3 = tested on: PC-3
Hs-578T = tested on: Hs-578T
HT-29 = tested on: HT-29
NCI-H460 = tested on: NCI-H460
CCRF-CEM = tested on: CCRF-CEM
M14 = tested on: M14
DU-145 = tested on: DU-145
A549 = tested on: A549
HCT-15 = tested on: HCT-15
SK-MEL-28 = tested on: SK-MEL-28
SN12C = tested on: SN12C
HCC 2998 = tested on: HCC 2998
SK-MEL-5 = tested on: SK-MEL-5
SF-268 = tested on: SF-268
SR = tested on: SR
NCI-H226 = tested on: NCI-H226
SNB-19 = tested on: SNB-19
UO-31 = tested on: UO-31
CAKI-1 = tested on: CAKI-1
NCI-H522 = tested on: NCI-H522
NCI/ADR-RES = tested on: NCI/ADR-RES
MDA-MB-435 = tested on: MDA-MB-435
SNB-75 = tested on: SNB-75
ACHN = tested on: ACHN
KM12 = tested on: KM12
MDA-MB-231 = tested on: MDA-MB-231
NCI-H23 = tested on: NCI-H23
MOLT-4 = tested on: MOLT-4
RPMI-8226 = tested on: RPMI-8226
SF-295 = tested on: SF-295
OVCAR-8 = tested on: OVCAR-8
MCF7 = tested on: MCF7
HOP-92 = tested on: HOP-92
T47D = tested on: T47D
IGROV-1 = tested on: IGROV-1
LOX IMVI = tested on: LOX IMVI
786-0 = tested on: 786-0
OVCAR-3 = tested on: OVCAR-3
RXF 393 = tested on: RXF 393
OVCAR-5 = tested on: OVCAR-5
EKVX = tested on: EKVX
HOP-62 = tested on: HOP-62
TK-10 = tested on: TK-10

For `O=C(C/C(=N/O)C(=O)NC1=C(Cl)C(=O)c2ccccc2C1=O)CC(c1ccccc1)c1c(O)c2ccccc2oc1=O` (stereo not drawn), the GI50 (HL-60) was 2.39 µM (inactive), the GI50 (SF-539) was 8.11 µM (inactive) and the GI50 (UACC-62) was 3.14 µM (inactive). For the same molecule, the GI50 (COLO 205) was 13.4 µM (inactive), the GI50 (OVCAR-4) was 10 µM (inactive) and the GI50 (A498) was 46.6 µM (inactive). For the same molecule, the GI50 (BT-549) was 16.4 µM (inactive), the GI50 (SW-620) was 6.58 µM (inactive) and the GI50 (U-251) was 7.69 µM (inactive). For the same molecule, the GI50 (MDA-N) was 1.72 µM (inactive), the GI50 (HCT-116) was 4.51 µM (inactive) and the GI50 (UACC-257) was 18.5 µM (inactive). The GI50 (SK-MEL-2) was 10.6 µM (inactive), the GI50 (SK-OV-3) was 39 µM (inactive) and the GI50 (K562) was 16.3 µM (inactive). The GI50 (Malme-3M) was 2.08 µM (inactive), the GI50 (PC-3) was 3.92 µM (inactive) and the GI50 (Hs-578T) was 6.76 µM (inactive). The GI50 (HT-29) was 4.84 µM (inactive), the GI50 (NCI-H460) was 3.15 µM (inactive) and the GI50 (CCRF-CEM) was 4.56 µM (inactive). For the same molecule, the GI50 (M14) was 4.59 µM (inactive), the GI50 (DU-145) was 3.27 µM (inactive) and the GI50 (A549) was 5.69 µM (inactive). The GI50 (HCT-15) was 3.16 µM, the GI50 (SK-MEL-28) was 7.43 µM (inactive) and the GI50 (SN12C) was 8.97 µM (inactive). For the same molecule, the GI50 (HCC 2998) was 11.9 µM (inactive), the GI50 (SK-MEL-5) was 1.12 µM (inactive) and the GI50 (SF-268) was 7.35 µM (inactive). The GI50 (SR) was 7.35 µM (inactive), the GI50 (NCI-H226) was 2.48 µM (inactive) and the GI50 (SNB-19) was 19.1 µM (inactive). For the same molecule, the GI50 (UO-31) was 14.9 µM (inactive), the GI50 (CAKI-1) was 17.3 µM (inactive) and the GI50 (NCI-H522) was 13.2 µM (inactive). For the same molecule, the GI50 (NCI/ADR-RES) was 11.2 µM (inactive), the GI50 (MDA-MB-435) was 2.22 µM (inactive) and the GI50 (SNB-75) was 3.87 µM (inactive). For the same molecule, the GI50 (ACHN) was 19.8 µM (inactive), the GI50 (KM12) was 3.5 µM (inactive) and the GI50 (MDA-MB-231) was 4.57 µM (inactive). For the same molecule, the GI50 (NCI-H23) was 3.63 µM (inactive), the GI50 (MOLT-4) was 17.9 µM (inactive) and the GI50 (RPMI-8226) was 19.1 µM (inactive). For the same molecule, the GI50 (SF-295) was 7.93 µM (inactive), the GI50 (OVCAR-8) was 10.8 µM (inactive) and the GI50 (MCF7) was 6.85 µM (inactive). The GI50 (HOP-92) was 22.3 µM (inactive), the GI50 (T47D) was 12.1 µM (inactive) and the GI50 (IGROV-1) was 4.52 µM (inactive). For the same molecule, the GI50 (LOX IMVI) was 3.39 µM (inactive), the GI50 (786-0) was 10.4 µM (inactive) and the GI50 (OVCAR-3) was 3.88 µM (inactive). The GI50 (RXF 393) was 13.2 µM (inactive), the GI50 (OVCAR-5) was 17.7 µM (inactive) and the GI50 (EKVX) was 14.5 µM (inactive).

In the case of `O=C1CN(C(=O)C2CCCN2C(=O)C2CCCN2)C(=O)CN1` (stereo not drawn), the GI50 (HL-60) was > 100 µM (inactive), the GI50 (UACC-62) was > 100 µM (inactive) and the GI50 (COLO 205) was > 100 µM (inactive). For the same molecule, the GI50 (OVCAR-4) was > 100 µM (inactive), the GI50 (A498) was 55.2 µM (inactive) and the GI50 (BT-549) was > 100 µM (inactive). The GI50 (SW-620) was > 100 µM (inactive), the GI50 (U-251) was > 100 µM (inactive) and the GI50 (MDA-N) was > 100 µM (inactive). The GI50 (HCT-116) was > 100 µM (inactive), the GI50 (SK-OV-3) was > 100 µM (inactive) and the GI50 (K562) was > 100 µM (inactive). The GI50 (Malme-3M) was > 100 µM (inactive), the GI50 (PC-3) was > 100 µM (inactive) and the GI50 (Hs-578T) was > 100 µM (inactive). For the same molecule, the GI50 (HT-29) was > 100 µM (inactive), the GI50 (NCI-H460) was > 100 µM (inactive) and the GI50 (CCRF-CEM) was > 100 µM (inactive). For the same molecule, the GI50 (M14) was > 100 µM (inactive), the GI50 (HOP-62) was > 100 µM (inactive) and the GI50 (DU-145) was > 100 µM (inactive). For the same molecule, the GI50 (A549) was > 100 µM (inactive), the GI50 (HCT-15) was greater than 100 µM and the GI50 (SK-MEL-28) was > 100 µM (inactive). For the same molecule, the GI50 (SN12C) was > 100 µM (inactive), the GI50 (HCC 2998) was > 100 µM (inactive) and the GI50 (SK-MEL-5) was > 100 µM (inactive). The GI50 (SF-268) was > 100 µM (inactive), the GI50 (SR) was > 100 µM (inactive) and the GI50 (NCI-H226) was > 100 µM (inactive). For the same molecule, the GI50 (SNB-19) was > 100 µM (inactive), the GI50 (UO-31) was > 100 µM (inactive) and the GI50 (CAKI-1) was > 100 µM (inactive). For the same molecule, the GI50 (NCI-H522) was > 100 µM (inactive), the GI50 (NCI/ADR-RES) was > 100 µM (inactive) and the GI50 (MDA-MB-435) was 36.8 µM (inactive). For the same molecule, the GI50 (SNB-75) was > 100 µM (inactive), the GI50 (ACHN) was > 100 µM (inactive) and the GI50 (KM12) was > 100 µM (inactive). For the same molecule, the GI50 (MDA-MB-231) was > 100 µM (inactive), the GI50 (NCI-H23) was > 100 µM (inactive) and the GI50 (TK-10) was > 100 µM (inactive). For the same molecule, the GI50 (MOLT-4) was > 100 µM (inactive), the GI50 (RPMI-8226) was > 100 µM (inactive) and the GI50 (SF-295) was > 100 µM (inactive). For the same molecule, the GI50 (OVCAR-8) was > 100 µM (inactive), the GI50 (MCF7) was > 100 µM (inactive) and the GI50 (HOP-92) was > 100 µM (inactive). The GI50 (T47D) was > 100 µM (inactive), the GI50 (IGROV-1) was > 100 µM (inactive) and the GI50 (LOX IMVI) was > 100 µM (inactive). The GI50 (786-0) was > 100 µM (inactive), the GI50 (OVCAR-3) was > 100 µM (inactive) and the GI50 (RXF 393) was > 100 µM (inactive). For the same molecule, the GI50 (OVCAR-5) was > 100 µM (inactive) and the GI50 (EKVX) was > 100 µM (inactive).

From ChEMBL document CHEMBL1201862, “PubChem BioAssay data set” (2004)
